In patent US12427144B2, “Compounds and methods for the targeted degradation of androgen receptor” (Arvinas Operations, Inc., priority 2019, dated 2025):

Target: T1, androgen receptor (Homo sapiens, UniProt P10275)
T1 construct: endogenous in cells; host or cells: VCaP
T1 sequence (P10275 1-920): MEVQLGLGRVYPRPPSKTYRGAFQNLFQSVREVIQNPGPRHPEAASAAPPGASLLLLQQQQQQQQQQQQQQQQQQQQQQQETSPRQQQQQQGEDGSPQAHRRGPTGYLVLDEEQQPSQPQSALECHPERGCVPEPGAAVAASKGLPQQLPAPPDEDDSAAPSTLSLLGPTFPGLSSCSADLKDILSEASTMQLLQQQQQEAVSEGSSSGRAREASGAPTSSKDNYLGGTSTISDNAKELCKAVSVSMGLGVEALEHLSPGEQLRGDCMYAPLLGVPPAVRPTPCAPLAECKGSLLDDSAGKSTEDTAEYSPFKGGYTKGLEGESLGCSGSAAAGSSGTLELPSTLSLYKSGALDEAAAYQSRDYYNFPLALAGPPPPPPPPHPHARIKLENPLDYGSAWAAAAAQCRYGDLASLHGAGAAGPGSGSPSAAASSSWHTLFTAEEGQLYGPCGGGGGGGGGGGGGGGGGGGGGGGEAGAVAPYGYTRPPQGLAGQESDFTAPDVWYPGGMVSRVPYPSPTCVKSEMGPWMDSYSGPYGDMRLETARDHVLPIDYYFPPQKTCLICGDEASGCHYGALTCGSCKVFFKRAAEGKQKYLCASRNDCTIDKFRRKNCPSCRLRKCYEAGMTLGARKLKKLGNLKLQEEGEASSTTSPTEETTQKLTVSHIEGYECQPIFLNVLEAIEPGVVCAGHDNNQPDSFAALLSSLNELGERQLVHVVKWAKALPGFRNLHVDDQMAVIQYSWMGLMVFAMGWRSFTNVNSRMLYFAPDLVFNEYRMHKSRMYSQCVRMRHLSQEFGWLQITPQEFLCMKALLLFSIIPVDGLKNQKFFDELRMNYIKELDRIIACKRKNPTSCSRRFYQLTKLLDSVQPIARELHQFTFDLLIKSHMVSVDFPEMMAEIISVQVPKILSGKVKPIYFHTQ
Test: AR ELISA assay (PathScan AR Sandwich ELISA), VCaP cells
Assay type: cell-based
Conditions: drug treatment 5 hours
Protocol: Compounds were evaluated in this assay in LNCaP and/or VCaP cells utilizing similar protocols. The protocols used with VCaP cells are described below. The androgen receptor ELISA assay was performed using PathScan AR Sandwich ELISA (Cell Signaling Catalog #12850) according to the following assay steps:
VCaP cells were seeded at 40,000 cells/well at a volume of 100 μL/well in VCaP assay medium [Phenol red free RPMI (Gibco Cat #11835-030); 5% Charcoal Stripped (Dextran treated) FBS (Omega Scientific, Cat #FB-04); 1% penstrep (Life Technologies, Gibco Cat #: 10378-016)] in Corning 3904 plates. The cells were incubated for a minimum of 3 days. Cells were dosed with PROTACs diluted in 0.01% DMSO and the drug treatment was allowed for 5 hours.
AR ELISA (Cell Signaling) was performed as follows. 1× Cell Signaling Cell lysis buffer was made (Catalogue #9803; comes with the kit). Media from the treated wells is aspirated, and 100 μL 1× cell lysis buffer/well is added. The cells were placed on a shaker for 10 minutes at 4° C. Twenty microliters of lysate was transferred to 100 μl of Diluent in ELISA plate (0.15 μg/ml-[…]). The lysate-diluent mixture was shaken for 30 minutes at 37° C. Allow mouse AR antibody, anti-mouse antibody, TMB, and STOP solution to come to room temperature. The 1×ELISA buffer included in kit was made and loaded in the reservoir. Media from the plates was discarded, the ELISA plate tapped hard on paper towel, and washed 4×200 μl ELISA wash buffer using a plate washer.
One-hundred (100) […] of mouse AR detection Ab was added; the plates were covered and shaken at 37° C. for 1 hour; media was discarded from the plates, the plates were tapped on a paper towel, washed 4× with 200 μL ELISA wash buffer with a plate washer.
One-hundred (100) […] of anti-mouse—HRP conjugated Ab (comes with the kit) was added; the plates were covered and shaken at 37° C. for 30 minutes; the TMB reagent was allowed to come to room temperature; the media was discard from the plate, the plates were tapped on paper towel, washed 4× with 200 μL of ELISA wash buffer; the plates were tapped the plates on paper towel. One-hundred (100) L of TMB was added and the plates shaken for 2 minutes—while watching for color development. One-hundred (100) L Stop solution was added when light blue color developed. Plates were shaken and read at 450 nm.
Progression of prostate cancer in patients treated with anti-androgen therapy usually involves one of several mechanisms of enhanced Androgen Receptor (AR) signaling, including increased intratumoral androgen synthesis, increased AR expression and AR mutations. PROTACs (PROteolysis TArgeting Chimera), which use bi-functional molecules that simultaneously bind a target of choice and an E3 ligase, cause ubiquitination via induced proximity and degradation of the targeted, pathological protein. As opposed to traditional target inhibition, which is a competitive process, degradation is a progressive process. As such, it is less susceptible to increases in endogenous ligand, target expression, or mutations in the target. Thus, this technology appears to be ideal for addressing the mechanisms of AR resistance in patients with prostate cancer. Data was analyzed and plotted using GraphPad Prism software.

DC50 | Dmax | SMILES
< 1 nM | ≥ 70% | Cc1cc(O[C@H]2C(C)(C)[C@H](NC(=O)c3ccc(N4CCC(CN5CCN(c6ccc(C(=O)NC7CCC(=O)NC7=O)cc6)CC5)CC4)nn3)C2(C)C)cc(C)c1C#N (stereo partly drawn) [Compound 2, N-((1R,3R)-3-(4-cyano-3,5-dimethylphenoxy)-2,2,4,4-tetramethylcyclobutyl)-6-(4-((4-(4-((2,6-dioxopiperidin-3-yl)carbamoyl)phenyl)piperazin-1-yl)methyl)piperidin-1-yl)pyridazine-3-carboxamide]
< 1 nM | < 50% | CC1(C)[C@H](NC(=O)c2ccc(N3CCC(CN4CCN(c5cccc(C(=O)NC6CCC(=O)NC6=O)c5)CC4)CC3)cc2)C(C)(C)[C@H]1Oc1ccc(C#N)c(Cl)c1 (stereo partly drawn) [Compound 4, 3-(4-((1-(4-(((1R,3R)-3-(3-chloro-4-cyanophenoxy)-2,2,4,4-tetramethylcyclobutyl)carbamoyl)phenyl)piperidin-4-yl)methyl)piperazin-1-yl)-N-(2,6-dioxopiperidin-3-yl)benzamide]
< 1 nM | < 50% | Cc1cc(O[C@H]2C(C)(C)[C@H](NC(=O)c3ccc(N4CCC(CN5CCN(c6cncc(C(=O)NC7CCC(=O)NC7=O)c6)CC5)CC4)cc3)C2(C)C)cc(C)c1C#N (stereo partly drawn) [Compound 5, N-(2,6-dioxopiperidin-3-yl)-5-(4-[[1-(4-[[(1r,3r)-3-(4-cyano-3,5-dimethylphenoxy)-2,2,4,4-tetramethylcyclobutyl]carbamoyl]phenyl)piperidin-4-yl]methyl]piperazin-1-yl)pyridine-3-carboxamide]
< 1 nM | 50 to 70% | Cc1cc(O[C@H]2C(C)(C)[C@H](NC(=O)c3ccc(N4CCC(CN5CCN(c6ccc(F)c(C(=O)NC7CCC(=O)NC7=O)c6)CC5)CC4)cc3)C2(C)C)cc(C)c1C#N (stereo partly drawn) [Compound 6, 5-(4-((1-(4-(((1R,3R)-3-(4-cyano-3,5-dimethylphenoxy)-2,2,4,4-tetramethylcyclobutyl)carbamoyl)phenyl)piperidin-4-yl)methyl)piperazin-1-yl)-N-(2,6-dioxopiperidin-3-yl)-2-fluorobenzamide]
< 1 nM | < 50% | CC1(C)[C@H](NC(=O)c2ccc(N3CCC(CN4CCN(c5ccc(F)c(C(=O)NC6CCC(=O)NC6=O)c5)CC4)CC3)cc2)C(C)(C)[C@H]1Oc1ccc(C#N)c(Cl)c1 (stereo partly drawn) [Compound 8, 5-(4-((1-(4-(((1R,3R)-3-(3-chloro-4-cyanophenoxy)-2,2,4,4-tetramethylcyclobutyl)carbamoyl)phenyl)piperidin-4-yl)methyl)piperazin-1-yl)-N-(2,6-dioxopiperidin-3-yl)-2-fluorobenzamide]
< 1 nM | 50 to 70% | Cc1cc(O[C@H]2C(C)(C)[C@H](NC(=O)c3ccc(N4CCC(CN5CCN(c6ccnc(C(=O)NC7CCC(=O)NC7=O)c6)CC5)CC4)cc3)C2(C)C)cc(C)c1C#N (stereo partly drawn) [Compound 10, 4-(4-((1-(4-(((1R,3R)-3-(4-cyano-3,5-dimethylphenoxy)-2,2,4,4-tetramethylcyclobutyl)carbamoyl)phenyl)piperidin-4-yl)methyl)piperazin-1-yl)-N-(2,6-dioxopiperidin-3-yl)picolinamide]

The next lines start with the molecule.

SMILES | DC50 | Dmax
CC1(C)[C@H](NC(=O)c2ccc(N3CCC(CN4CCN(c5ccc(C(=O)NC6CCC(=O)NC6=O)cc5)CC4)CC3)nn2)C(C)(C)[C@H]1Oc1ccc(C#N)c(Cl)c1 (stereo partly drawn) [Compound 3, N-[3-(3-chloro-4-cyanophenoxy)-2,2,4,4-tetramethylcyclobutyl]-6-[4-[(4-[4-[(2,6-dioxopiperidin-3-yl)carbamoyl]phenyl]piperazin-1-yl)methyl]piperidin-1-yl]pyridazine-3-carboxamide] | < 1 nM | ≥ 70%
CC1(C)[C@H](NC(=O)c2ccc(N3CCC(CN4CCN(c5ccc(C(=O)NC6CCC(=O)NC6=O)cc5)CC4)CC3)cc2)C(C)(C)[C@H]1Oc1ccc(C#N)c(Cl)c1 (stereo partly drawn) [Compound 7, N-((1R,3R)-3-(3-chloro-4-cyanophenoxy)-2,2,4,4-tetramethylcyclobutyl)-4-(4-((4-(4-((2,6-dioxopiperidin-3-yl)carbamoyl)phenyl)piperazin-1-yl)methyl)piperidin-1-yl)benzamide] | < 1 nM | ≥ 70%
CC(C)N(CC1CCN(c2cnc(C(=O)N[C@H]3C(C)(C)[C@H](Oc4ccc(C#N)c(Cl)c4)C3(C)C)cn2)CC1)[C@H]1C[C@H](Oc2cccc(C(=O)NC3CCC(=O)NC3=O)c2)C1 (stereo partly drawn) [Compound 9, N-((1R,3R)-3-(3-chloro-4-cyanophenoxy)-2,2,4,4-tetramethylcyclobutyl)-5-(4-((((1R,3R)-3-(3-((2,6-dioxopiperidin-3-yl)carbamoyl)phenoxy)cyclobutyl)(isopropyl)amino)methyl)piperidin-1-yl)pyrazine-2-carboxamide] | ≥ 100 nM | < 50%
Cc1cc(O[C@H]2C(C)(C)[C@H](NC(=O)c3cnc(N4CCC(CN(C(C)C)[C@H]5C[C@H](Oc6cccc(C(=O)NC7CCC(=O)NC7=O)c6)C5)CC4)nc3)C2(C)C)cc(C)c1C#N (stereo partly drawn) [Compound 11, N-((1R,3R)-3-(4-cyano-3,5-dimethylphenoxy)-2,2,4,4-tetramethylcyclobutyl)-2-(4-((((1R,3R)-3-(3-((2,6-dioxopiperidin-3-yl)carbamoyl)phenoxy)cyclobutyl)(isopropyl)amino)methyl)piperidin-1-yl)pyrimidine-5-carboxamide] | < 1 nM | 50 to 70%
Cc1cc(O[C@H]2C(C)(C)[C@H](NC(=O)c3cnc(N4CCC(CN(C(C)C)[C@H]5C[C@H](Oc6ccc(C(=O)NC7CCC(=O)NC7=O)cc6)C5)CC4)nc3)C2(C)C)cc(C)c1C#N (stereo partly drawn) [Compound 12, N-((1R,3R)-3-(4-cyano-3,5-dimethylphenoxy)-2,2,4,4-tetramethylcyclobutyl)-2-(4-((((1R,3R)-3-(4-((2,6-dioxopiperidin-3-yl)carbamoyl)phenoxy)cyclobutyl)(isopropyl)amino)methyl)piperidin-1-yl)pyrimidine-5-carboxamide] | < 1 nM | ≥ 70%
Cc1cc(O[C@H]2C(C)(C)[C@H](NC(=O)c3cnc(N4CCC(CN(C(C)C)[C@H]5C[C@H](Oc6ccc(C(=O)NC7CCC(=O)NC7=O)cc6)C5)CC4)cn3)C2(C)C)cc(C)c1C#N (stereo partly drawn) [Compound 13, N-((1R,3R)-3-(4-cyano-3,5-dimethylphenoxy)-2,2,4,4-tetramethylcyclobutyl)-5-(4-((((1R,3R)-3-(4-((2,6-dioxopiperidin-3-yl)carbamoyl)phenoxy)cyclobutyl)(isopropyl)amino)methyl)piperidin-1-yl)pyrazine-2-carboxamide] | 1 to 10 nM | 50 to 70%
